Where “and” joins values, the source holds several entries; their conditions need not be identical. Equal values may be shown once. Toxic doses and inconclusive results are not listed. No stated cut-off is given here; in the data, active means T/C of 150% or more; inactive means T/C below 125%.
System: L1210 leukemia ip in BDF1 mice, survival T/C
Assay: NCI In Vivo Anticancer Drug Screen. Data for tumor model L1210 Leukemia (intraperitoneal) in B6D2F1 (BDF1) mice
Conditions: endpoint: mean survival time, higher = longer survival
Procedure, shortened: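 Value reflects the ratio of survival in compound-treated mice to survival in vehicle-treated controls, with both groups carrying the same transplanted tumor.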

[1] = dose: 25.0 mg/kg/injection, schedule: Q01DX009 (ip), vehicle: saline with Tween-80
[2] = dose: 100.0 mg/kg/injection, schedule: Q04DX003 (ip), vehicle: saline with Tween-80
[3] = dose: 100.0 mg/kg/injection, schedule: Q01DX001 (ip), vehicle: saline
[4] = dose: 200.0 mg/kg/injection, schedule: Q01DX001 (ip), vehicle: saline
[5] = dose: 400.0 mg/kg/injection, schedule: Q01DX001 (ip), vehicle: saline
[6] = dose: 200.0 mg/kg/injection, schedule: Q04DX003 (ip), vehicle: saline with Tween-80
[7] = dose: 400.0 mg/kg/injection, schedule: Q04DX003 (ip), vehicle: saline with Tween-80
[8] = dose: 100.0 mg/kg/injection, schedule: Q01DX009 (ip), vehicle: saline
[9] = dose: 100.0 mg/kg/injection, schedule: Q04DX003 (ip), vehicle: saline
[10] = dose: 200.0 mg/kg/injection, schedule: Q04DX003 (ip), vehicle: saline
[11] = dose: 400.0 mg/kg/injection, schedule: Q04DX003 (ip), vehicle: saline
[12] = dose: 25.0 mg/kg/injection, schedule: Q01DX009 (ip), vehicle: saline
[13] = dose: 25.0 mg/kg/injection, schedule: Q04DX003 (ip), vehicle: saline
[14] = dose: 50.0 mg/kg/injection, schedule: Q01DX009 (ip), vehicle: saline
[15] = dose: 50.0 mg/kg/injection, schedule: Q04DX003 (ip), vehicle: saline

Measured: T/C

Cn1nc(N)c2ncc(C(Cl)(Cl)Cl)nc21
inactive: [1] 108 % of control | dose: 50.0 mg/kg/injection, schedule: Q01DX009 (ip), vehicle: saline with Tween-80 111 % of control

CCOc1ccc(/C=N\NC(=O)c2ccco2)cc1OCC
inactive: dose: 100.0 mg/kg/injection, schedule: Q01DX001 (ip), vehicle: carboxymethylcellulose (CMC) 93 % of control | dose: 200.0 mg/kg/injection, schedule: Q01DX001 (ip), vehicle: carboxymethylcellulose (CMC) 95 % of control | dose: 400.0 mg/kg/injection, schedule: Q01DX001 (ip), vehicle: carboxymethylcellulose (CMC) 97 % of control

COC(=O)CNC(=O)C(Cc1ccc(O)cc1)NC(=O)OC(C)(C)C (centres undefined)
inactive: dose: 50.0 mg/kg/injection, schedule: Q01DX005 (ip), vehicle: saline 95 % of control | dose: 100.0 mg/kg/injection, schedule: Q01DX005 (ip), vehicle: saline 105 % of control | dose: 200.0 mg/kg/injection, schedule: Q01DX005 (ip), vehicle: saline 96 % of control | dose: 400.0 mg/kg/injection, schedule: Q01DX005 (ip), vehicle: saline 98 % of control

CSc1cc(-c2ccccc2)c2ccccc2[n+]1C
inactive: dose: 12.5 mg/kg/injection, schedule: Q04DX003 (ip), vehicle: saline with Tween-80 112 % of control | [1] 116 % of control | dose: 25.0 mg/kg/injection, schedule: Q04DX003 (ip), vehicle: saline with Tween-80 112 % of control | dose: 50.0 mg/kg/injection, schedule: Q04DX003 (ip), vehicle: saline with Tween-80 90 % of control | [2] 94 % of control

CC[C@H](CC[C@@H](C)C1CC[C@H]2[C@@H]3CCC4=CC(=O)CC[C@]4(C)[C@H]3CC[C@]12C)C(C)C (some centres undefined)
inactive: [3] 98 % of control | [4] 95 % of control | [5] 97 % of control

COc1ccc(C(C)=O)cc1OCc1ccccc1
inactive: dose: 100.0 mg/kg/injection, schedule: Q01DX009 (ip), vehicle: water 112 % of control | dose: 100.0 mg/kg/injection, schedule: Q04DX003 (ip), vehicle: water 98 % of control | dose: 200.0 mg/kg/injection, schedule: Q01DX009 (ip), vehicle: water 108 % of control | dose: 200.0 mg/kg/injection, schedule: Q04DX003 (ip), vehicle: water 100 % of control | dose: 400.0 mg/kg/injection, schedule: Q01DX009 (ip), vehicle: water 103 % of control | dose: 400.0 mg/kg/injection, schedule: Q04DX003 (ip), vehicle: water 93 % of control

CCN(CC)c1cc2c(cc1Br)-c1ccccc1C2=O
inactive: [2] 101 % of control | [6] 104 % of control | [7] 106 % of control

O=C(Nc1ccc(C2=NCC(O)CN2)cc1)c1ccc(C(=O)Nc2ccc(C3=NCC(O)CN3)cc2)c(Cl)c1 (centres undefined)
inactive: dose: 12.0 micrograms/kg/injection, schedule: Q01DX015 (ip), vehicle: water 96 % of control | dose: 25.0 micrograms/kg/injection, schedule: Q01DX015 (ip), vehicle: water 114 % of control | dose: 50.0 micrograms/kg/injection, schedule: Q01DX015 (ip), vehicle: water 96 % of control | dose: 75.0 micrograms/kg/injection, schedule: Q01DX015 (ip), vehicle: water 102 % of control

O=Cc1cccn1-c1cccc2c(-n3cccc3C=O)cccc12
inactive: dose: 25.0 mg/kg/injection, schedule: Q04DX002 (ip), vehicle: Klucel (hydroxypropylcellulose) (HPC) 97 % of control | dose: 50.0 mg/kg/injection, schedule: Q04DX002 (ip), vehicle: Klucel (hydroxypropylcellulose) (HPC) 93 % of control | dose: 100.0 mg/kg/injection, schedule: Q04DX002 (ip), vehicle: Klucel (hydroxypropylcellulose) (HPC) 97 % of control

C=CC(=O)N1CCOCC1
inactive: [2] 113 % of control | [6] 100 % of control | [7] 108 % of control

O=C(N/N=C/c1ccc2c(c1)CCC2)c1ccc(S(=O)(=O)O)cc1
inactive: dose: 100.0 mg/kg/injection, schedule: Q04DX003 (ip), vehicle: Klucel (hydroxypropylcellulose) (HPC) 97 % of control | dose: 200.0 mg/kg/injection, schedule: Q04DX003 (ip), vehicle: Klucel (hydroxypropylcellulose) (HPC) 104 % of control | dose: 400.0 mg/kg/injection, schedule: Q04DX003 (ip), vehicle: Klucel (hydroxypropylcellulose) (HPC) 97 % of control

CC(C)OC(=O)CC#N
inactive: [3] 103 % of control | [4] 103 % of control | [5] 103 % of control

C[N+](C)(C)CCC[N+](C)(C)C
inactive: [8] 108 % of control | [9] 107 % of control | dose: 200.0 mg/kg/injection, schedule: Q01DX009 (ip), vehicle: saline 106 % of control | [10] 92 % of control | dose: 400.0 mg/kg/injection, schedule: Q01DX009 (ip), vehicle: saline 106 % of control | [11] 100 % of control

O=C(c1cccc(F)c1)C(F)(F)F
inactive: dose: 100.0 mg/kg/injection, schedule: Q01DX009 (ip), vehicle: Klucel (hydroxypropylcellulose) (HPC) 96 % of control | dose: 200.0 mg/kg/injection, schedule: Q01DX009 (ip), vehicle: Klucel (hydroxypropylcellulose) (HPC) 104 % of control | dose: 300.0 mg/kg/injection, schedule: Q01DX009 (ip), vehicle: Klucel (hydroxypropylcellulose) (HPC) 93 % of control

CC(=O)OC1CC2C(C(=O)O)C2C1OC(C)=O (centres undefined)
inactive: dose: 100.0 mg/kg/injection, schedule: Q01DX001 (ip), vehicle: saline with Tween-80 104 % of control | dose: 200.0 mg/kg/injection, schedule: Q01DX001 (ip), vehicle: saline with Tween-80 92 % of control | dose: 400.0 mg/kg/injection, schedule: Q01DX001 (ip), vehicle: saline with Tween-80 95 % of control

FC(F)(F)C(F)(C1=NS1(F)C(F)(C(F)(F)F)C(F)(F)F)C(F)(F)F (centres undefined)
inactive: dose: 100.0 mg/kg/injection, schedule: Q01DX001 (ip), vehicle: acetone 101 % of control | dose: 200.0 mg/kg/injection, schedule: Q01DX001 (ip), vehicle: acetone 95 % of control | dose: 400.0 mg/kg/injection, schedule: Q01DX001 (ip), vehicle: acetone 100 % of control

CNCCCN(C)CCCNC
inactive: [12] 100 % of control | [13] 96 % of control | [14] 101 % of control | [15] 104 % of control | [8] 94 % of control | [9] 99 % of control and 102 % of control

COc1c2c(cc3c1C(Cl)N(C)CC3)OCO2 (centres undefined)
inactive: [12] 98 % of control | [13] 103 % of control | [14] 104 % of control | [15] 97 % of control | [9] 98 % of control and 102 % of control

O=c1[nH]c(=O)n(C2CC=CO2)cc1F (centres undefined)
inactive: [9] 111 % of control | [10] 113 % of control | [11] 117 % of control

CC(C)Oc1ccc2c(c1)Sc1ccc(Cl)cc1N2
inactive: dose: 100.0 mg/kg/injection, schedule: Q01DX009 (ip), vehicle: saline with Tween-80 102 % of control | dose: 200.0 mg/kg/injection, schedule: Q01DX009 (ip), vehicle: saline with Tween-80 94 % of control | dose: 400.0 mg/kg/injection, schedule: Q01DX009 (ip), vehicle: saline with Tween-80 92 % of control

Reference: PubChem BioAssay AID248 (DTP/NCI, 2004)
